Measured values as given in patent publication US7851474B2, “Dipiperazinyl ketones and related analogues” (Neurogen Corporation, priority 2005, dated 2010).

Each compound was assayed against T1, chimeric human H3 receptor (Homo sapiens, UniProt Q9Y5N1, E19D) (assay: Chimeric human H3 receptor GTP binding assay (agonist-stimulated GTP-gamma35S binding, Example 7)). Settings: Table II "Ki", symbol "*": Ki in the assay of Example 7; read-out: Ki.
T1 construct: made in house; host or cells: Sf9 insect cells (baculovirus infection); P2 membrane preparation
T1 sequence (Q9Y5N1 with tags, fused parts or gaps E19D): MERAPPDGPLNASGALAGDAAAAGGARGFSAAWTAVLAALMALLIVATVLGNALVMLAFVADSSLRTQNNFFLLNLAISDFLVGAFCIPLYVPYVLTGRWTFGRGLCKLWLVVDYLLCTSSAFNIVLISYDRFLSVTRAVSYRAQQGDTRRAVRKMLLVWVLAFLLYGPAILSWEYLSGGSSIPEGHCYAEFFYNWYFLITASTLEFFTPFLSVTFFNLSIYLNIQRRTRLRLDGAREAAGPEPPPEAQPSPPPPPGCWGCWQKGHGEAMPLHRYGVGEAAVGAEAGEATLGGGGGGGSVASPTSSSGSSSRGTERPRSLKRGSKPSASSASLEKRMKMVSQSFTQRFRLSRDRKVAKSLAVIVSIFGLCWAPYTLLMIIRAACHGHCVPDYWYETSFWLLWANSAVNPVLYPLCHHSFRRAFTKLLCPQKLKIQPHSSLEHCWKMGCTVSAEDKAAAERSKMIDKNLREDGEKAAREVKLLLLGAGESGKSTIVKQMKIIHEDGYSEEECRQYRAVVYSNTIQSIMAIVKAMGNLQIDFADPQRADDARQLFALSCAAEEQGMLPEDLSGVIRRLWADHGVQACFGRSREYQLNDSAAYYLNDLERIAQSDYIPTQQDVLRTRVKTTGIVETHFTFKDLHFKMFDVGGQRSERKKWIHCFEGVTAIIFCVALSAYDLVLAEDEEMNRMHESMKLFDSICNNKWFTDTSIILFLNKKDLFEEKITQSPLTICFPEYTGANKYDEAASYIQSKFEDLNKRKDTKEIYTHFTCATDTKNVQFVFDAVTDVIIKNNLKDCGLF
Type: biochemical
Procedure, shortened: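 IC50 values come from non-linear regression of dose-response curves of filter-bound GTP-gamma^35S, counted by scintillation. Membranes were from infected Sf9 cells carrying receptor plus G-protein subunits, 35 μg/tube, with 10 μM GDP present.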

Row | Ki [µM] | Structure (SMILES)
1 | < 1 | CCC(C)N1CCN(C(=O)CN2CCN(c3ccc(Cl)c(C)c3)CC2)CC1 (stereo not shown) [Compound 878, 1-sec-butyl-4-{[4-(4-chloro-3-methylphenyl)piperazin-1-yl]acetyl}piperazine]
2 | < 1 | CCC(C)N1CCN(C(=O)CN2CCN(c3ccccc3Cl)CC2)CC1 (stereo not shown) [Compound 866, 1-sec-butyl-4-{[4-(2-chlorophenyl)piperazin-1-yl]acetyl}piperazine]
3 | < 1 | CCC(C)N1CCN(C(=O)CN2CCN(c3cccc(C(F)(F)F)c3)CC2)CC1 (stereo not shown) [Compound 853, 1-sec-butyl-4-({4-[3-(trifluoromethyl)phenyl]piperazin-1-yl}acetyl)piperazine]
4 | < 1 | COc1ccc(-c2ccc(N3CCN(CC(=O)N4CCN(C5CCC5)CC4)CC3)cc2)c(C)c1 [Compound 779, 1-cyclobutyl-4-{[4-(4′-methoxy-2′-methylbiphenyl-4-yl)piperazin-1-yl]acetyl}piperazine]
5 | < 1 | COc1ccc(N2CCN(CC(=O)N3CCN(C4CCCCC4)CC3)CC2)cc1OC [Compound 816, 1-cyclohexyl-4-{[4-(3,4-dimethoxyphenyl)piperazin-1-yl]acetyl}piperazine]
6 | < 1 | CCC(C)N1CCN(C(=O)CN2CCN(c3ccc(Cl)cc3)CC2)CC1 (stereo not shown) [Compound 879, 1-sec-butyl-4-{[4-(4-chlorophenyl)piperazin-1-yl]acetyl}piperazine]
7 | < 1 | COc1ccc(-c2ccc(N3CCN(CC(=O)N4CCN(C5CCC5)CC4)CC3)cc2)cc1C [Compound 780, 1-cyclobutyl-4-{[4-(4′-methoxy-3′-methylbiphenyl-4-yl)piperazin-1-yl]acetyl}piperazine]
8 | < 1 | O=C(CN1CCN(c2cccc(-c3ccc(F)cc3)c2)CC1)N1CCN(C2CCC2)CC1 [Compound 773, 1-cyclobutyl-4-{[4-(4′-fluorobiphenyl-3-yl)piperazin-1-yl]acetyl}piperazine]

Same assay, conditions: Table II, "*" in Ki; assay of Example 7; read-out: Ki

Row | Ki [µM] | Structure (SMILES)
9 | < 1 | O=C(CN1CCN(c2ccc(-c3ccc(F)c(F)c3)cc2)CC1)N1CCN(C2CCC2)CC1 [Compound 730, 1-cyclobutyl-4-{[4-(3′,4′-difluorobiphenyl-4-yl)piperazin-1-yl]acetyl}piperazine]
10 | < 1 | O=C(CN1CCN(c2ccc(-c3cc(Cl)cc(Cl)c3)cc2)CC1)N1CCN(C2CCC2)CC1 [Compound 739, 1-cyclobutyl-4-{[4-(3′,5′-dichlorobiphenyl-4-yl)piperazin-1-yl]acetyl}piperazine]

Same assay, conditions: Table II; assay of Example 7; "*" in Ki; read-out: Ki

Row | Ki [µM] | Structure (SMILES)
11 | < 1 | O=C(CN1CCN(c2cnc(-c3ccccc3Oc3ccccc3)cn2)CC1)N1CCN(C2CCC2)CC1 [Compound 959, 2-{4-[2-(4-cyclobutylpiperazin-1-yl)-2-oxoethyl]piperazin-1-yl}-5-(2-phenoxyphenyl)pyrazine]
12 | < 1 | CC(C)(C)CNC(=O)c1cccc(N2CCN(CC(=O)N3CCN(C4CCC4)CC3)CC2)c1 [Compound 1085, 3-{4-[2-(4-cyclobutylpiperazin-1-yl)-2-oxoethyl]piperazin-1-yl}-N-(2,2-dimethylpropyl) benzamide]
13 | < 1 | O=C(CN1CCN(c2cnc(-c3ccc(Cl)c(Cl)c3)cn2)CC1)N1CCN(C2CCC2)CC1 [Compound 964, 2-{4-[2-(4-cyclobutylpiperazin-1-yl)-2-oxoethyl]piperazin-1-yl}-5-(3,4-dichlorophenyl)pyrazine]
14 | < 1 | O=C(CN1CCN(c2ccc(-c3ccccc3C(F)(F)F)nn2)CC1)N1CCN(C2CCC2)CC1 [Compound 1056, 3-{4-[2-(4-cyclobutylpiperazin-1-yl)-2-oxoethyl]piperazin-1-yl}-6-[2-(trifluoromethyl)phenyl] pyridazine]
15 | < 1 | CC(C)N(C)C(=O)c1cccc(N2CCN(CC(=O)N3CCN(C4CCC4)CC3)CC2)c1 [Compound 1067, 3-{4-[2-(4-cyclobutylpiperazin-1-yl)-2-oxoethyl]piperazin-1-yl}-N-isopropyl-N-methylbenzamide]
16 | < 1 | O=C(CN1CCN(c2nc3ccccc3n2Cc2ccc(F)cc2)CC1)N1CCN(C2CCCC2)CC1 [Compound 978, 2-{4-[2-(4-cyclopentylpiperazin-1-yl)-2-oxoethyl]piperazin-1-yl}-1-(4-fluorobenzyl)-1H-benzimidazole]
17 | < 1 | CN(C(=O)c1cccc(N2CCN(CC(=O)N3CCN(C4CCC4)CC3)CC2)c1)C1CCCCC1 [Compound 1068, 3-{4-[2-(4-cyclobutylpiperazin-1-yl)-2-oxoethyl]piperazin-1-yl}-N-cyclohexyl-N-methylbenzamide]

Same assay, conditions: assay of Example 7; "*" in Ki of Table II; read-out: Ki

Row | Ki [µM] | Structure (SMILES)
18 | < 1 | COc1ccc(C(=O)NC2CCN(CC(=O)N3CCN(C4CCC4)CC3)CC2)cc1F [Compound 1214, N-{1-[2-(4-cyclobutylpiperazin-1-yl)-2-oxoethyl]piperidin-4-yl}-3-fluoro-4-methoxybenzamide]
19 | < 1 | O=C(NC1CCN(CC(=O)N2CCN(C3CCC3)CC2)CC1)c1ccc(Oc2ccccc2)cc1 [Compound 1224, N-{1-[2-(4-cyclobutylpiperazin-1-yl)-2-oxoethyl]piperidin-4-yl}-4-phenoxybenzamide]
20 | < 1 | CCCc1ccc(C(=O)NC2CCN(CC(=O)N3CCN(C4CCC4)CC3)CC2)cc1 [Compound 1218, N-{1-[2-(4-cyclobutylpiperazin-1-yl)-2-oxoethyl]piperidin-4-yl}-4-propylbenzamide]
21 | < 1 | Cc1ccc(C(=O)NC2CCN(CC(=O)N3CCN(C4CCC4)CC3)CC2)cc1 [Compound 1217, N-{1-[2-(4-cyclobutylpiperazin-1-yl)-2-oxoethyl]piperidin-4-yl}-4-methylbenzamide]
22 | < 1 | O=C(NC1CCCCC1)c1ccc(N2CCN(CC(=O)N3CCN(C4CCC4)CC3)CC2)nc1 [Compound 1181, 6-{4-[2-(4-cyclobutylpiperazin-1-yl)-2-oxoethyl]piperazin-1-yl}-N-cyclohexylnicotinamide]
23 | < 1 | CCCc1ccc(C(=O)NC2CCN(CC(=O)N3CCN(C4CCC4)CC3)C2)cc1 (stereo not shown) [Compound 1234, N-{1-[2-(4-cyclobutylpiperazin-1-yl)-2-oxoethyl]pyrrolidin-3-yl}-4-propylbenzamide]
24 | < 1 | O=C(CCC1CCCC1)NC1CCN(CC(=O)N2CCN(C3CCC3)CC2)C1 (stereo not shown) [Compound 1250, N-{1-[2-(4-cyclobutylpiperazin-1-yl)-2-oxoethyl]pyrrolidin-3-yl}-3-cyclopentylpropanamide]

Same assay, conditions: assay of Example 7; symbol * in column headed Ki of Table II; read-out: Ki

Row | Ki [µM] | Structure (SMILES)
25 | < 1 | COc1ccc(CN2C(=O)c3ccccc3C23CCN(CC(=O)N2CCN(C4CCC4)CC2)CC3)c(OC)c1 [Compound 425, 1′-[2-(4-cyclobutylpiperazin-1-yl)-2-oxoethyl]-2-(2,4-dimethoxybenzyl)spiro[isoindole-1,4′-piperidin]-3(2H)-one]
26 | < 1 | O=C(c1ccc(N2CCN(CC(=O)N3CCN(C4CCC4)CC3)CC2)cc1)C1CC1 [Compound 249, (4-{4-[2-(4-cyclobutylpiperazin-1-yl)-2-oxoethyl]piperazin-1-yl}phenyl)(cyclopropyl) methanone]
27 | < 1 | O=C(c1ccccc1)c1ccc(N2CCN(CC(=O)N3CCN(C4CCCC4)CC3)CC2)cc1 [Compound 251, (4-{4-[2-(4-cyclopentylpiperazin-1-yl)-2-oxoethyl]piperazin-1-yl}phenyl)(phenyl)methanone]
28 | < 1 | O=C(CN1CCN(c2ccc(C(=O)N3CC[C@@H]4CCCC[C@@H]4C3)cc2)CC1)N1CCN(C2CCC2)CC1 [Compound 255, (4aS,8aS)-2-(4-{4-[2-(4-cyclobutylpiperazin-1-yl)-2-oxoethyl]piperazin-1-yl}benzoyl) decahydroisoquinoline]
